Holding throughout (type): physicochemical
Series [1] can be described thus: Molar extinction coefficient of i-line (365 nm), UV-visible absorbance in acetonitrile. The conditions noted are these: 0.25 mmol/L in acetonitrile, cell length 1 cm. The method, boiled down: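 Compound at 0.25 mmol/L in acetonitrile; UV-visible absorbance scanned 200–500 nm in a 1 cm path cell. ε365 calculated from the absorbance at 365 nm.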
A short description of series [2]: Thermal decomposition temperature (TG/DTA, 2% weight reduction). The conditions noted are these: point of 2% weight reduction; 10° C./minute from 30° C. to 500° C.; nitrogen atmosphere. As for the experimental part: The synthesized photoacid generator was measured for the change in weight under a temperature increasing condition of 10° C./minute from 30° C. to 500° C. under a nitrogen atmosphere using a thermal gravimetric/differential thermal analyzer (TG/DTA 6200, available from Seiko Instruments Inc.), and a point where the weight was reduced by 2% was defined as the thermal decomposition temperature.

The nature of series [3]: Solvent solubility (butyl acetate, toluene or PGMEA). The conditions noted are these: 25° C. The method, boiled down: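 Test-tube titration at 25° C: 0.1 g photoacid generator, solvent (butyl acetate, toluene or PGMEA) added in 0.2 g portions until fully dissolved. Scored as not dissolved if still undissolved after 20 g solvent.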

In series [1], `CC1(C)C2CC[C@@]1(CS(=O)(=O)ON1C(=O)c3cccc4cc(OC(=O)c5ccccc5)cc(c34)C1=O)C(=O)C2` [Example A-51, 3-benzoyloxy-1,8-naphthalimide-(+)-10-camphorsulfonate] yielded a Molar extinction coefficient of 1400 L/mol/cm. Besides, the Thermal decomposition temperature in series [2] is 245 °C. In series [3], the “Solvent solubility PGMEA” value stood at 5 wt %, the “Solvent solubility Butyl acetate” value turned out to be 6 wt % and the “Solvent solubility Toluene” value was 6 wt %.

Molecule `CC1(C)C2CC[C@@]1(CS(=O)(=O)ON1C(=O)c3cccc4cc(OC(=O)c5c(F)c(F)c(F)c(F)c5F)cc(c34)C1=O)C(=O)C2` [Example A-52, 3-pentafluorobenzoyloxy-1,8-naphthalimide-(+)-10-camphorsulfonate] yielded a Molar extinction coefficient in series [1] of 1300 L/mol/cm. In series [2], the Thermal decomposition temperature was determined as 245 °C. Also, in series [3], the “Solvent solubility PGMEA” value turned out to be 7.5 wt %, the “Solvent solubility Butyl acetate” value amounted to 12 wt % and the “Solvent solubility Toluene” value is listed as 10 wt %.

The molecule `CC(C)(C)c1cc2c3c(cc(C(C)(C)C)cc3c1)C(=O)N(OS(=O)(=O)CC13CCC(CC1=O)C3(C)C)C2=O` (stereo not drawn) [Example A-53, 3,6-di-tert-butyl-1,8-naphthalimide-(+)-10-camphorsulfonate] came in with a Molar extinction coefficient in series [1] of 6500 L/mol/cm. The molecule also gave a Thermal decomposition temperature in series [2] of 247 °C. Also, in series [3], the “Solvent solubility PGMEA” value was 1.7 wt %, the “Solvent solubility Butyl acetate” value came out at 2 wt % and the “Solvent solubility Toluene” value worked out at 1.9 wt %.

In series [1], `CC(C)(C)Cc1cc2c3c(cc(CC(C)(C)C)cc3c1)C(=O)N(OS(=O)(=O)CC13CCC(CC1=O)C3(C)C)C2=O` (stereo not drawn) [Example A-54, 3,6-dineopentyl-1,8-naphthalimide-(+)-10-camphorsulfonate] yielded a Molar extinction coefficient of 6200 L/mol/cm. The molecule further showed a Thermal decomposition temperature in series [2] of 252 °C. For the same molecule, in series [3], the “Solvent solubility PGMEA” value is 3.5 wt %, the “Solvent solubility Butyl acetate” value is 4.5 wt % and the “Solvent solubility Toluene” value came to 2.5 wt %.

With `CC1(C)C2CC[C@@]1(CS(=O)(=O)ON1C(=O)c3cc(C45CC6CC(CC(C6)C4)C5)cc4cc(C56CC7CC(CC(C7)C5)C6)cc(c34)C1=O)C(=O)C2` [Example A-55, 3,6-diadamantyl-1,8-naphthalimide-(+)-10-camphorsulfonate], the Molar extinction coefficient in series [1] is 6000 L/mol/cm. Further, the Thermal decomposition temperature in series [2] came out at 253 °C. Further, in series [3], the “Solvent solubility PGMEA” value was 1.7 wt %, the “Solvent solubility Butyl acetate” value was found to be 2 wt % and the “Solvent solubility Toluene” value came to 2.1 wt %.

Molecule `CC1(C)C2CCC1(CS(=O)(=O)ON1C(=O)c3cccc4c(C(F)(F)C(F)(F)C(F)(F)C(F)(F)F)ccc(c34)C1=O)C(=O)C2` (stereo not drawn) [Example A-56, 4-(nonafluorobutyl)-1,8-naphthalimide-(+)-10-camphorsulfonate] registered a Molar extinction coefficient in series [1] of 40 L/mol/cm. The Thermal decomposition temperature in series [2] amounted to 241 °C. Further, in series [3], the “Solvent solubility PGMEA” value turned out to be 5 wt %, the “Solvent solubility Butyl acetate” value worked out at 5 wt % and the “Solvent solubility Toluene” value worked out at 5.5 wt %.

`CC1(C)C2CCC1(CS(=O)(=O)ON1C(=O)c3cccc4c(C(F)(F)C(F)(F)C(F)(F)C(F)(F)C(F)(F)C(F)(F)C(F)(F)C(F)(F)F)ccc(c34)C1=O)C(=O)C2` (stereo not drawn) [Example A-57, 4-(heptadecafluoro-n-octyl)-1,8-naphthalimide-(+)-10-camphorsulfonate] registered a Molar extinction coefficient in series [1] of 80 L/mol/cm. The same molecule registered a Thermal decomposition temperature in series [2] of 246 °C. For the same molecule, in series [3], the “Solvent solubility PGMEA” value was found to be 9 wt %, the “Solvent solubility Butyl acetate” value turned out to be 9.5 wt % and the “Solvent solubility Toluene” value was found to be 10 wt %.

On to `CC1(C)[C@@H]2CC[C@@]1(CS(=O)(=O)ON1C(=O)c3cccc4c([Si](C)(C)C)ccc(c34)C1=O)C(=O)C2` [Example A-58, 4-trimethylsilyl-1,8-naphthalimide-(+)-10-camphorsulfonate], for which the Molar extinction coefficient in series [1] was 5500 L/mol/cm. In series [2], this molecule registered a Thermal decomposition temperature of 243 °C. In series [3], the “Solvent solubility PGMEA” value turned out to be 2.5 wt %, the “Solvent solubility Butyl acetate” value amounted to 2.5 wt % and the “Solvent solubility Toluene” value is 3 wt %.

`CC1(C)C2CCC1(CS(=O)(=O)ON1C(=O)c3cccc4c(Cl)ccc(c34)C1=O)C(=O)C2` (stereo not drawn) [Example A-59, 4-chloro-1,8-naphthalimide-(+)-10-camphorsulfonate] registered a Molar extinction coefficient in series [1] of 6000 L/mol/cm. This molecule came in with a Thermal decomposition temperature in series [2] of 228 °C. In series [3], the “Solvent solubility PGMEA” value came to 1.5 wt %, the “Solvent solubility Butyl acetate” value is recorded as 1.5 wt % and the “Solvent solubility Toluene” value worked out at 2.5 wt %.

Molecule `CC1(C)C2CCC1(CS(=O)(=O)ON1C(=O)c3cccc4c(Br)ccc(c34)C1=O)C(=O)C2` (stereo not drawn) [Example A-60, 4-bromo-1,8-naphthalimide-(+)-10-camphorsulfonate] showed a Molar extinction coefficient in series [1] of 8500 L/mol/cm. In addition, in series [2], the Thermal decomposition temperature came to 240 °C. Further, in series [3], the “Solvent solubility PGMEA” value was found to be 1.5 wt %, the “Solvent solubility Butyl acetate” value was determined as 1.1 wt % and the “Solvent solubility Toluene” value is given as 2 wt %.

Source of the values: patent US20160368879A1, “PHOTOACID GENERATOR, AND RESIN COMPOSITION FOR PHOTOLITHOGRAPHY” (SAN-APRO LTD., priority 2013, published 2016).
